ChEMBL document CHEMBL3046801, “Synthesis of 2-R1-2-(4-(2-fluoroethoxy)benzamido)acetate as potential PET imaging agents” (Med Chem Res, 2012)

Assays:
Spleen [1] = assay: Biodistribution in tumor bearing Mus musculus KM (mouse) spleen at 3.7 MBq, iv measured at 60 min by microPET imaging analysis; format: ADME, organism-based; details: in vivo, 1 h
Muscle tissue [2] = assay: Biodistribution in tumor bearing Mus musculus KM (mouse) muscle at 3.7 MBq, iv by microPET imaging analysis; format: ADME, organism-based; details: in vivo, TDE = time-dependent effect
Blood [3] = assay: Biodistribution in tumor bearing Mus musculus KM (mouse) blood at 3.7 MBq, iv measured at 5 min by microPET imaging analysis; format: ADME, organism-based; details: in vivo
Blood [4] = assay: Biodistribution in tumor bearing Mus musculus KM (mouse) blood at 3.7 MBq, iv by microPET imaging analysis; format: ADME, organism-based; details: in vivo, TDE = time-dependent effect
Heart [5] = assay: Biodistribution in tumor bearing Mus musculus KM (mouse) heart at 3.7 MBq, iv measured at 15 min by microPET imaging analysis; format: ADME, organism-based; details: in vivo, 0.25 h
Kidney [6] = assay: Biodistribution in tumor bearing Mus musculus KM (mouse) kidney at 3.7 MBq, iv measured at 5 min by microPET imaging analysis; format: ADME, organism-based; details: in vivo
Spleen [7] = assay: Biodistribution in tumor bearing Mus musculus KM (mouse) spleen at 3.7 MBq, iv measured at 15 min by microPET imaging analysis; format: ADME, organism-based; details: in vivo, 0.25 h
Tumour [8] = assay: Biodistribution in tumor of Mus musculus KM (mouse) at 3.7 MBq, iv by microPET imaging analysis; format: ADME, organism-based, Neoplasm; details: in vivo, TDE = time-dependent effect
[9] = Chemical stability in acetonitrile at 60 degC up to 30 min by HPLC analysis; format: physicochemical; details: 0.5 h
Muscle tissue [10] = assay: Biodistribution in tumor bearing Mus musculus KM (mouse) muscle at 3.7 MBq, iv measured at 30 min by microPET imaging analysis; format: ADME, organism-based; details: in vivo, 0.5 h
Heart [11] = assay: Biodistribution in tumor bearing Mus musculus KM (mouse) heart at 3.7 MBq, iv by microPET imaging analysis; format: ADME, organism-based; details: in vivo, TDE = time-dependent effect
Lung [12] = assay: Biodistribution in tumor bearing Mus musculus KM (mouse) lung at 3.7 MBq, iv by microPET imaging analysis; format: ADME, organism-based; details: in vivo, TDE = time-dependent effect
Liver [13] = assay: Biodistribution in tumor bearing Mus musculus KM (mouse) liver at 3.7 MBq, iv by microPET imaging analysis; format: ADME, organism-based; details: in vivo, TDE = time-dependent effect
Nucleic Acid [14] = assay: Ratio of drug uptake in tumor to muscle in Mus musculus KM (mouse) at 3.7 MBq, iv at 5 min; format: ADME, organism-based; details: in vivo
Heart [15] = assay: Biodistribution in tumor bearing Mus musculus KM (mouse) heart at 3.7 MBq, iv measured at 60 min by microPET imaging analysis; format: ADME, organism-based; details: in vivo, 1 h
[16] = Chemical stability in sodium chloride up to 2 hr by HPLC analysis; format: physicochemical
Kidney [17] = assay: Biodistribution in tumor bearing Mus musculus KM (mouse) kidney at 3.7 MBq, iv measured at 15 min by microPET imaging analysis; format: ADME, organism-based; details: in vivo, 0.25 h
Brain [18] = assay: Biodistribution in tumor bearing Mus musculus KM (mouse) brain at 3.7 MBq, iv measured at 15 min by microPET imaging analysis; format: ADME, organism-based; details: in vivo, 0.25 h
Heart [19] = assay: Biodistribution in tumor bearing Mus musculus KM (mouse) heart at 3.7 MBq, iv measured at 120 min by microPET imaging analysis; format: ADME, organism-based; details: in vivo, 2 h
[20] = Metabolic stability in serum after 1 hr by HPLC analysis; format: ADME
Muscle tissue [21] = assay: Biodistribution in tumor bearing Mus musculus KM (mouse) muscle at 3.7 MBq, iv measured at 120 min by microPET imaging analysis; format: ADME, organism-based; details: in vivo, 2 h
Kidney [22] = assay: Biodistribution in tumor bearing Mus musculus KM (mouse) kidney at 3.7 MBq, iv measured at 30 min by microPET imaging analysis; format: ADME, organism-based; details: in vivo, 0.5 h
Liver [23] = assay: Biodistribution in tumor bearing Mus musculus KM (mouse) liver at 3.7 MBq, iv measured at 60 min by microPET imaging analysis; format: ADME, organism-based; details: in vivo, 1 h
Liver [24] = assay: Biodistribution in tumor bearing Mus musculus KM (mouse) liver at 3.7 MBq, iv measured at 15 min by microPET imaging analysis; format: ADME, organism-based; details: in vivo, 0.25 h
Kidney [25] = assay: Biodistribution in tumor bearing Mus musculus KM (mouse) kidney at 3.7 MBq, iv measured at 120 min by microPET imaging analysis; format: ADME, organism-based; details: in vivo, 2 h
Blood [26] = assay: Biodistribution in tumor bearing Mus musculus KM (mouse) blood at 3.7 MBq, iv measured at 60 min by microPET imaging analysis; format: ADME, organism-based; details: in vivo, 1 h
Lung [27] = assay: Biodistribution in tumor bearing Mus musculus KM (mouse) lung at 3.7 MBq, iv measured at 120 min by microPET imaging analysis; format: ADME, organism-based; details: in vivo, 2 h
Heart [28] = assay: Biodistribution in tumor bearing Mus musculus KM (mouse) heart at 3.7 MBq, iv measured at 5 min by microPET imaging analysis; format: ADME, organism-based; details: in vivo
[29] = Octanol-PBS partition coefficient of the compound at pH 7.4 by gamma counter; format: physicochemical; details: read-out: log KOW
Spleen [30] = assay: Biodistribution in tumor bearing Mus musculus KM (mouse) spleen at 3.7 MBq, iv measured at 120 min by microPET imaging analysis; format: ADME, organism-based; details: in vivo, 2 h
Brain [31] = assay: Biodistribution in tumor bearing Mus musculus KM (mouse) brain at 3.7 MBq, iv measured at 30 min by microPET imaging analysis; format: ADME, organism-based; details: in vivo, 0.5 h
Muscle tissue [32] = assay: Biodistribution in tumor bearing Mus musculus KM (mouse) muscle at 3.7 MBq, iv measured at 60 min by microPET imaging analysis; format: ADME, organism-based; details: in vivo, 1 h
Lung [33] = assay: Biodistribution in tumor bearing Mus musculus KM (mouse) lung at 3.7 MBq, iv measured at 30 min by microPET imaging analysis; format: ADME, organism-based; details: in vivo, 0.5 h
Brain [34] = assay: Biodistribution in tumor bearing Mus musculus KM (mouse) brain at 3.7 MBq, iv measured at 120 min by microPET imaging analysis; format: ADME, organism-based; details: in vivo, 2 h
Brain [35] = assay: Biodistribution in tumor bearing Mus musculus KM (mouse) brain at 3.7 MBq, iv measured at 5 min by microPET imaging analysis; format: ADME, organism-based; details: in vivo
Muscle tissue [36] = assay: Biodistribution in tumor bearing Mus musculus KM (mouse) muscle at 3.7 MBq, iv measured at 5 min by microPET imaging analysis; format: ADME, organism-based; details: in vivo
Liver [37] = assay: Biodistribution in tumor bearing Mus musculus KM (mouse) liver at 3.7 MBq, iv measured at 5 min by microPET imaging analysis; format: ADME, organism-based; details: in vivo
Tumour [38] = assay: Biodistribution in tumor of Mus musculus KM (mouse) at 3.7 MBq, iv measured at 15 min by microPET imaging analysis; format: ADME, organism-based, Neoplasm; details: in vivo, 0.25 h
Nucleic Acid [39] = assay: Ratio of drug uptake in tumor to muscle in Mus musculus KM (mouse) at 3.7 MBq, iv at 120 min; format: ADME, organism-based; details: in vivo, 2 h
Spleen [40] = assay: Biodistribution in tumor bearing Mus musculus KM (mouse) spleen at 3.7 MBq, iv by microPET imaging analysis; format: ADME, organism-based; details: in vivo, TDE = time-dependent effect
Muscle tissue [41] = assay: Biodistribution in tumor bearing Mus musculus KM (mouse) muscle at 3.7 MBq, iv measured at 15 min by microPET imaging analysis; format: ADME, organism-based; details: in vivo, 0.25 h
Spleen [42] = assay: Biodistribution in tumor bearing Mus musculus KM (mouse) spleen at 3.7 MBq, iv measured at 5 min by microPET imaging analysis; format: ADME, organism-based; details: in vivo
Tumour [43] = assay: Biodistribution in tumor of Mus musculus KM (mouse) at 3.7 MBq, iv measured at 30 min by microPET imaging analysis; format: ADME, organism-based, Neoplasm; details: in vivo, 0.5 h

SMILES: COC(=O)CNC(=O)c1ccc(OCC[18F])cc1 [[18F]FEBA]
- Drug uptake (Spleen [1]): 0.64 % ID/g
- Drug uptake (Muscle tissue [2]): tde
- Drug uptake (Blood [3]): 4.68 % ID/g
- Drug uptake (Blood [4]): tde
- Drug uptake (Heart [5]): 1.93 % ID/g
- Drug uptake (Kidney [6]): 7.25 % ID/g
- Drug uptake (Spleen [7]): 1.19 % ID/g
- Drug uptake (Tumour [8]): tde
- Stability [9]: Stable
- Drug uptake (Muscle tissue [10]): 0.94 % ID/g
- Drug uptake (Heart [11]): tde
- Drug uptake (Lung [12]): tde
- Drug uptake (Liver [13]): tde
- Ratio (Nucleic Acid [14]): 1.05
- Drug uptake (Heart [15]): 0.91 % ID/g
- Stability [16]: Stable
- Drug uptake (Kidney [17]): 4.07 % ID/g
- Drug uptake (Brain [18]): 1.26 % ID/g
- Drug uptake (Heart [19]): 0.77 % ID/g
- Stability [20]: Stable
- Drug uptake (Muscle tissue [21]): 1.17 % ID/g
- Drug uptake (Kidney [22]): 1.77 % ID/g
- Drug uptake (Liver [23]): 0.73 % ID/g
- Drug uptake (Liver [24]): 2.11 % ID/g
- Drug uptake (Kidney [25]): 0.65 % ID/g
- Drug uptake (Blood [26]): 0.98 % ID/g
- Drug uptake (Lung [27]): 0.76 % ID/g
- Drug uptake (Heart [28]): 2.64 % ID/g
- logD [29]: 0.57
- Drug uptake (Spleen [30]): 0.6 % ID/g
- Drug uptake (Brain [31]): 0.51 % ID/g
- Drug uptake (Muscle tissue [32]): 0.53 % ID/g
- Drug uptake (Lung [33]): 1.32 % ID/g
- Drug uptake (Brain [34]): 0.6 % ID/g
- Drug uptake (Brain [35]): 1.51 % ID/g
- Drug uptake (Muscle tissue [36]): 2.02 % ID/g
- Drug uptake (Liver [37]): 4.19 % ID/g
- Drug uptake (Tumour [38]): 2.3 % ID/g
- Ratio (Nucleic Acid [39]): 1.03
- Drug uptake (Spleen [40]): tde
- Drug uptake (Muscle tissue [41]): 1.25 % ID/g
- Drug uptake (Spleen [42]): 2.04 % ID/g
- Drug uptake (Tumour [43]): 1.71 % ID/g
